Results from patent US12054660B2, “Compound, composition, cured substance, optically anisotropic body, optical element, and light guide element” (FUJIFILM Corporation, priority 2021, dated 2024).

What was measured:
Assay type in all cases: physicochemical
[1] = Evaluation of light resistance of optically anisotropic layer; details: rate of change in Re of layer (25 parts compound/75 parts L-1) after xenon irradiation 50 hours, 63° C., 50% RH, oxygen-blocking
Method: (§1) As shown below, the durability of the optically anisotropic layer produced using the composition containing each of the compounds A-1 and A-3 to A-20, and the compounds RA-1 and RA-2 was evaluated.
(§2) A coating composition having the following composition was prepared and applied by spin coating onto a rubbing-treated glass attached with an alignment film.
(§3) The polymerizable liquid crystal compound L-1 is a mixture obtained by mixing at a ratio of the following L-1-1/L-1-2/L-1-3=84/14/2 (in terms of mass ratio).
The produced optically anisotropic layers for light resistance/durability tests were irradiated with light using a Super Xenon Weather Meter SX75 manufactured by Suga Test Instruments Co., Ltd. Using KU-1000100 manufactured by King Seisakusho Co., Ltd. as an ultraviolet ray cut filter, irradiation with 5 million 1× of light was carried out for 50 hours under the oxygen-blocking conditions to carry out a light resistance test. The temperature of the specimen to be tested (the temperature inside the test device) was set to 63° C. The relative humidity in the test device was 50% RH.
The Re of the optically anisotropic layer before and after the light resistance test was measured, the light resistance in a case where the rate of change in Re described below was less than 10% was evaluated as A, and the light resistance in a case where the rate of change in Re was 10% or more was evaluated as B. The smaller the rate of change in Re, the more excellent the light resistance.
(§4) Re is an in-plane retardation. Rate of change in Re (%)=[100×{|(Re after test)−(Re before test)|}/(Re before test)]
(§5) Re was measured with Axoscan manufactured by Axometrics, Inc. at a wavelength of 550 nm, and the measurement temperature was set to room temperature.

[2] = Evaluation of liquid crystallinity (hot stage, polarization microscope); parameters: key: A case of having liquid crystallinity was evaluated as A; a case of having no liquid crystallinity was evaluated as B; details: heated on a hot stage
Text: As a specific observation method, optical anisotropy and fluidity derived from the liquid crystal phase can be checked by carrying out an observation under a polarization microscope while heating or lowering the temperature of the compound with a hot stage or the like.
The respective compounds of Examples and Comparative Examples (the compounds A-1, A-3 to A-20, and the compounds RA-1 and RA-2) were heated on a hot stage and observed with a polarization microscope, and the phase transition temperature was measured to evaluate the presence or absence of liquid crystallinity. A case of having liquid crystallinity was evaluated as A, and a case of having no liquid crystallinity was evaluated as B. The results are shown in Table 1.

[3] = Evaluation of durability (moisture-heat resistance test) of optically anisotropic layer; details: rate of change in Re of layer (25 parts compound/75 parts L-1) after 136 hours at 100° C., 95% RH
Method: as §1, §2, §3, §4, §5
The produced optically anisotropic layer was allowed to be left for 136 hours at 100° C. and a relative humidity of 95% RH, whereby a moisture-heat resistance test was carried out. The rate of change in Re before and after the durability test was evaluated, the durability in a case where the rate of change in Re was less than 10% was evaluated as A, and the durability in a case where the rate of change in Re was 10% or more was evaluated as B. The smaller the rate of change in Re, the more excellent the durability.

[4] = Measurement of Δn (refractive index anisotropy), wedge-shaped liquid crystal cell; details: 550 nm, 30° C. or lower limit temperature of nematic phase+0 to 10° C.; some extrapolated from 1/2 mixture with L-1-1
Method: The Δn of each of the compounds of Examples and Comparative Examples (the compounds A-1, A-3 to A-20, and the compounds RA-1 and RA-2), which are the compounds to be measured, was measured by a method using a wedge-shaped liquid crystal cell described on page 202 in the Liquid crystal handbook (edited by the liquid crystal handbook editorial board, published by Maruzen Co., Ltd., 2000). An was defined as a measured value at a wavelength of 550 nm at 30° C. or the lower limit temperature of the nematic phase+0° C. to 10° C. In a case of a compound which is liable to crystallize or a compound having no liquid crystallinity, evaluation was carried out using a mixture thereof with the other liquid crystal compound, and Δn was estimated from the extrapolated value of the measured value thereof. The following L-1-1 was used as the other liquid crystal compound. As the above mixture, a mixture obtained by mixing at a ratio of the compound to be measured/the L-1-1=1/2 (in terms of mass ratio) was used.
A case where Δn was 0.35 or more was evaluated as A, a case where Δn was 0.32 or more and less than 0.35 was evaluated as B, a case where Δn was 0.30 or more and less than 0.32 was evaluated as C, and a case where Δn was less than 0.30 was evaluated as D. The results are shown in Table 1.

[5] = Evaluation of solubility in methyl ethyl ketone; details: precipitation concentration in methyl ethyl ketone at room temperature (25° C.)
Method: The solubility of each of the compounds of Examples and Comparative Examples (the compounds A-1, A-3 to A-20, and the compounds RA-1 and RA-2) in methyl ethyl ketone was evaluated. A solution in which the compound was ultrasonically dissolved or dissolved by heating was produced.

Row | Liquid crystallinity [2] | Structure (SMILES) | Light resistance [1] | Durability [3] | Δn [4] | Solubility [5]
1 | A | CC(=O)OCCSc1ccc(C#Cc2ccc(COc3ccc(C#Cc4ccc(CCOC(C)=O)cc4)cc3)cc2C)cc1 [Compound A-13] | A (the light resistance in a case where the rate of change in Re described below was less than 10% was evaluated as A) | B (the durability in a case where the rate of change in Re was 10% or more was evaluated as B) | B (a case where Δn was 0.32 or more and less than 0.35 was evaluated as B) | A (the solubility in a case where the precipitation concentration was 10% by mass or more was evaluated as A)
2 | A | CC(=O)OCCCCCCCCCCOc1ccc(C#Cc2ccc(OC(=O)c3ccc(C#Cc4ccc(OCCCCCCCCCCOC(C)=O)c(F)c4)cc3)cc2)cc1F [RA-1, reference compound] | B (the light resistance in a case where the rate of change in Re was 10% or more was evaluated as B) | A (the durability in a case where the rate of change in Re was less than 10% was evaluated as A) | D (a case where Δn was less than 0.30 was evaluated as D) | B (the solubility in a case where the precipitation concentration was less than 10% by mass was evaluated as B)
